Here are results for five molecules from patent publication US9273015B2, “s-Triazine compounds, pharmaceutical compositions and methods of using the same” (NEW YORK UNIVERSITY, priority 2010, dated 2016).

One series deals with S. aureus. Nature of the series: Growth inhibition (broth microdilution), S. aureus. It is filed as cell-based, Staphylococcus aureus. The text has this: (§1) The antimicrobial activity of each peptide can be tested following standard broth microdilution protocols recommended by the National Committee for Clinical Laboratory Standard. Multidrug-resistant Staphylococcus aureus strain (ATCC BAA-44) and Acinetobacter baumannii (ATCC BAA-747) can be used in this study, as well as Ampicillin- and streptomycin-resistant Escherichia coli (D31), obtained from the E. coli Genetic Resource Center (Yale University, New Haven, Conn.). Bacteria can be grown overnight in Tryptic Soy broth at 37° C. Then, cultures are diluted in Mueller-Hinton broth to a final concentration range of 2×10^4 to 2×10^5 CFU/ml. Bacterial inocula are incubated at 37° C. in phosphate-buffered saline (PBS) buffer (pH7.2) with various dilutions of peptide stock. The 18-hour absorbance data are used to calculate the percentage of inhibition for each sample by comparison with the absorbance of cultures without sample. Bacterial growth is measured by turbidity as optical density at 600 nm (OD600), using a Genesys 5 Spectrophotometer (Rochester, N.Y.) or equivalent instrument. All assays can be carried out in triplicate. The concentration of peptide that results in 50% inhibition of growth is recorded as the IC50. In addition the concentration of agents needed can be monitored to reduce the bacterial population by three logs, IC99.9. This is a more rigorous indicator of the amount needed to prevent an infection.
(§2) The antimicrobial activity of each triazine compound was tested by following standard broth microdilution protocols recommended by the National Committee for Clinical Laboratory Standard. All compounds were initially tested against Bacillus subtilis (ATCC 6633; Rockville, Md.). Bacteria were grown in Mueller Hinton Broth (MHB) at 37° C. for overnight. Then, cultures were diluted in MHB to a final concentration of 2×10^4 to 2×10^5 CFU/mL. Bacterial inocula were incubated at 37° C. in PBS buffer (pH 7.2) with varying concentrations of 2-fold dilution of triazine stocks. The 18-hour absorbance data were used to calculate the percent inhibition for each sample by comparing with the absorbance of cultures without triazine compounds. Bacterial growth was measured by turbidity as optical density at 600 nm using a Genesys 5 Spectrophotometer (Rochester, N.Y.).
A general note: Dilution methods test growth across graded concentrations, often in twofold steps.

The subject of the next series is E. coli D31. Nature of the series: Growth inhibition (broth microdilution), E. coli D31. Format: cell-based, Escherichia coli.
Source text: as §1, §2

For series [1], the system named is A. baumannii. Nature of the series: Evolution of resistance on exposure to sublethal concentrations. The settings on record: 400 generations of exposure to sublethal concentrations. Format: cell-based. From the text:
FIG. 1 graphically depicts the experimental evaluation of the ability of A. baumannii to evolve resistance to sublethal TN5 and the AMP indolicidin relative to two antibiotics in current use. Changes in the IC50 of cultures exposed to sublethal doses of TN5 are expressed as ratios of the new to original values. For reference, the response of these cells to two current antibiotics is shown.
In particular, FIG. 1 depicts the results of the experimental evaluation of the ability of A. baumannii to evolve resistance to sublethal TN5 and the AMP indolicidin relative to two antibiotics in current use. Changes in the IC50 of cultures exposed to sublethal doses of TN5 are expressed as ratios of the new to original values. For reference, the response of these cells to ciprofloxacin and gentamycin, two current antibiotics is shown.

The subject of the next series is fresh sheep erythrocytes. Nature of the series: Hemolytic activity. Format: cell-based. As to the method: Hemolytic activity of triazine compounds is assessed using fresh sheep erythrocytes (Fitzgerald Inc., Concord, Mass.). The red blood cell suspension is incubated in PBS buffer (pH 7.2) with varying concentrations of sample stocks at 37° C. for 30 minutes, and then spun down at 3,000 rpm for 10 mins. The resulting supernatant is diluted by a factor of 40 with distilled water. The absorbance of the supernatant at 540 nm is measured using a Genesys 5 Spectrophotometer. Zero % and 100% hemolysis controls are obtained by incubating the cells with buffer and 1% Triton-X, respectively.
Hemolytic activity of three triazine compounds Is assessed on fresh sheep erythrocytes (Fitzgerald Inc., Concord, Mass.). The red blood cell suspension Is incubated in PBS buffer (pH 7.2) with varying concentrations of sample stocks at 37° C. for 30 minutes, and then spun down at 3,000 rpm for 10 mins. The resulting supernatant is diluted by a factor of 40 in distilled water. The absorbance of the supernatant at 540 nm is measured using a Genesys 5 Spectrophotometer. Zero hemolysis and 100% hemolysis controls are obtained by incubating the cells with buffer and 1% Triton-X, respectively. Sample concentration yielding 50% hemolysis is used as hemolytic dose (HD50) determined from dose-response curves.

The subject of series [2] is A. baumannii. Nature of the series: Growth inhibition (broth microdilution), A. baumannii. It is filed as cell-based, Acinetobacter baumannii. As to conditions: Table 1.
Source text: as §1, §2

For series [3], the system named is E. coli RP437/pRSH103 biofilm. Nature of the series: Biofilm formation in 96 well plate (crystal violet, OD540). Format: cell-based. The method, then: This assay is based on the protocols described previously (Li, 2001 #745; Pratt, 1998 #725) with slight modifications. Briefly, E. coli RP437 or the test strain is used to form biofilms in 96 well plates in the presence of dendrimer peptides (RW)4D or other agents. An overnight culture of E. coli RP437 grown in LB medium is used to inoculate LB medium in 96 well plates to an OD600 of 0.05. The peptides can be added to a final concentration of 0, 5, 10, 20, or 40 μM, respectively. Four replicates are tested for each condition. All samples are incubated at 37° C. without shaking for 24 hours to form the film. Then planktonic cells are removed and the plates with biofilms are washed three times with DI H2O and dried by gentle patting on a piece of paper towel. To stain the biofilms, 300 μL of 0.1% crystal violet is added into each well and incubated for 20 minutes at room temperature. Then the plates are washed three times with DI H2O to remove extra staining dye. OD540 is then measured to quantify the biofilm on the bottom of each well.
(§3) The strain for this experiment used was E. coli RP437/pRSH103, a strong film forming strain. The surface studied was that of a 96 well plate. Culture conditions were 24 hours or 48 hours of incubation in Luria-Bertani Broth (LB) supplemented with 10 μg/mL tetracycline at 37° C. The following assays were performed:
(§4) 1. Measurement of total cell growth in each well using OD600. 2. Quantification of the biofilm at the bottom of each well by staining with 0.1% crystal violet and reading OD540.
2. Quantification of total biofilm by dissolving the crystal violet with ethanol and reading at OD540 Absorbance at 540 nm and 600 nm with the medium and triazine only (no cells) was also measured to control the results by subtracting the background reading.

Series [4] has as its system E. coli RP437/pRSH103 planktonic cells. Briefly: Total planktonic cell growth (OD600). Format: cell-based. The settings on record: concentration range 0-5 μg/mL. As to the method: as §3, §4
The subject of a further series is B. subtilis. Briefly: Growth inhibition (broth microdilution), B. subtilis. It is filed as cell-based. The settings on record: Bacillus subtilis; for MIC50: read-out: B. Subtilis MIC50; for MIC90: read-out: B. Subtilis MIC90. As to the method:
as §2

≈ marks a conversion by molar mass, not a printed value. Entries after “also recorded” stand apart in the source; their conditions may differ. Where two headings read alike, the source gives them in different places.

As a reminder, the MIC50 is an inhibitory concentration at the 50% level, which refers to growth in some studies and to a panel of isolates in others. Broadly, the MIC90 is the lowest concentration that inhibits either 90% of growth or 90% of the strains tested, depending on the study. Usually IC50 stands for the point on the concentration scale where inhibition reaches its midpoint.

On to `NCCCCNc1nc(NCc2ccccc2)nc(NCc2cccc3ccccc23)n1` [TN5], for which the MIC50 against S. aureus (S. aureus, Table 1) turned out to be 5.9 µg/mL (≈ 13.8 µM); in the series with E. coli D31 (E. coli D31, Table 1), 4.75 µg/mL (≈ 11.1 µM); against A. baumannii [2], 3 µg/mL (≈ 7.02 µM). Also, the MIC90 stood at 9.8 µg/mL (≈ 22.9 µM) in the series with S. aureus (S. aureus, Table 1); 8.9 µg/mL (≈ 20.8 µM) in the series with E. coli D31 (E. coli D31, Table 1); 5.1 µg/mL (≈ 11.9 µM) against A. baumannii [2]. Besides, the “Acquired resistance (change in IC50, ratio of new to original)” value with A. baumannii [1] is recorded as “does not acquire resistance”. The molecule also came in with an HD50 in the series with fresh sheep erythrocytes (50% hemolysis, Table 1) of 167.5 µg/mL. The Biofilm formation entry in series [3] (E. coli) is listed as “prevents film formation”; in series [3] (E. coli, listed as TN-5) it was “prevents formation of biofilms”; in series [3] (at 1, 5, 10 μg/mL, 24 or 48 hours in LB) it was “inhibited biofilm formation”. In addition, in series [4], the “Growth of planktonic cells” value is reported as “does not inhibit growth of planktonic cells”.

Turning to gentamycin, the “Acquired resistance (change in IC50, ratio of new to original)” value in the series with A. baumannii [1] was “marked contrast; also recorded: significant increase in the IC50”.

As to `NCCCCNc1nc(NCc2ccccc2)nc(Nc2cccc3ccccc23)n1` [TN3], the MIC50 against S. aureus (S. aureus, Table 1) was 50.1 µg/mL (≈ 121 µM); with E. coli D31 (E. coli D31, Table 1) it was 40 µg/mL (≈ 96.7 µM); against A. baumannii [2], 50.8 µg/mL (≈ 123 µM). Besides, the MIC90 came out at 71.3 µg/mL (≈ 172 µM) in the series on S. aureus (S. aureus, Table 1); 84.8 µg/mL (≈ 205 µM) in the series on E. coli D31 (E. coli D31, Table 1); 77.4 µg/mL (≈ 187 µM) against A. baumannii [2]. The molecule also registered an HD50 with fresh sheep erythrocytes (50% hemolysis, Table 1) of 901.9 µg/mL.

Turning to `CN[C@H](CC(C)C)C(=O)N[C@H]1C(=O)N[C@@H](CC(N)=O)C(=O)N[C@H]2C(=O)N[C@H]3C(=O)N[C@H](C(=O)N[C@H](C(=O)O)c4cc(O)cc(O)c4-c4cc3ccc4O)[C@H](O)c3ccc(c(Cl)c3)Oc3cc2cc(c3O[C@@H]2O[C@H](CO)[C@@H](O)[C@H](O)[C@H]2O[C@H]2C[C@](C)(N)[C@H](O)[C@H](C)O2)Oc2ccc(cc2Cl)[C@H]1O` [Vancomycin, reference compound], the MIC50 in the series with S. aureus (Staphylococcus aureus, read-out: S. Aureus MIC50) is 0.8 µg/mL (≈ 0.552 µM); in the series with E. coli D31 (Escherichia coli, D31, read-out: E. Coli MIC50), 192 µg/mL (≈ 132 µM); in the series with B. subtilis, less than 0.8 µg/mL. Further, the MIC90 was 1.2 µg/mL (≈ 0.828 µM) in the series with S. aureus (Staphylococcus aureus, read-out: S. Aureus MIC90); greater than 200 µg/mL in the series on E. coli D31 (Escherichia coli, D31, read-out: E. Coli MIC90); less than 0.8 µg/mL in the series on B. subtilis. In the series on A. baumannii [1], the “Acquired resistance (change in IC50, ratio of new to original)” value is “marked contrast”.

For the molecule `NCCCNc1nc(NCCc2c[nH]c3ccccc23)nc(NCCc2c[nH]c3ccccc23)n1` [TZ-WKW], the MIC50 worked out at 3.4 µg/mL (≈ 7.24 µM) in the series on S. aureus (Staphylococcus aureus, Table 2, read-out: S. Aureus MIC50); 4.5 µg/mL (≈ 9.58 µM) in the series on E. coli D31 (Escherichia coli, D31, Table 2, read-out: E. Coli MIC50); 1.5 µg/mL (≈ 3.19 µM) with B. subtilis (Table 2). For the same molecule, the MIC90 in the series with S. aureus (Staphylococcus aureus, Table 2, read-out: S. Aureus MIC90) came out at 4.4 µg/mL (≈ 9.37 µM); in the series with E. coli D31 (Escherichia coli, D31, Table 2, read-out: E. Coli MIC90) it was 6 µg/mL (≈ 12.8 µM); in the series with B. subtilis (Table 2), 2.3 µg/mL (≈ 4.9 µM). Besides, the IC50 with S. aureus (Staphylococcus aureus, Table 3) was 3.4 µg/mL (≈ 7.24 µM); in the series on E. coli D31 (Escherichia coli, D31, read-out: E. coli IC50) it was 4.5 µg/mL (≈ 9.58 µM); with B. subtilis (Table 3) it was 1.5 µg/mL (≈ 3.19 µM). In the series with fresh sheep erythrocytes (Table 3), this molecule returned an HD50 of 65 µg/mL.
